Reference: ChEMBL document CHEMBL3994622, “Design and synthesis of new RAF kinase-inhibiting antiproliferative quinoline derivatives. Part 2: Diarylurea derivatives” (Eur J Med Chem, 2017)

Key:
Format in all cases: functional
IGROV-1 = experiment: Growth inhibition of human IGROV1 cells assessed as cell growth at 0.05 uM incubated for 48 hrs by sulforhodamine B assay relative to control; settings: IGROV-1, 48 h, read-out: Activity
BT-549 = experiment: Growth inhibition of human BT549 cells assessed as cell growth at 5 uM incubated for 48 hrs by sulforhodamine B assay relative to control; settings: BT-549, 48 h, read-out: Activity
CAKI-1 = experiment: Growth inhibition of human Caki1 cells assessed as cell growth at 5 uM incubated for 48 hrs by sulforhodamine B assay relative to control; settings: CAKI-1, 48 h, read-out: Activity

COc1cc2cc(Oc3ccc(NC(=O)Nc4cccc(C(F)(F)F)c4)cc3)c(C)nc2cc1OC
growth at 0.05 µM (IGROV-1): 108% | growth at 5 µM (BT-549): 7% | growth at 5 µM (CAKI-1): -7%
